Test results from patent publication US20070117861A1, “Treatment or prevention of cardiovascular and respiratory disorders with novel substituted cyclic-amp specific phosphodiesterase inhibitors” (University of South Carolina, priority 2003, published 2007).

How the values were obtained:
[1] = tested on: high K+ contracted porcine kidney main artery; assay: tension assay, high K+ contracted porcine kidney vessel rings; conditions: tension assay trace, FIG. 5
Procedure: The trachea, main bronchi and vessel rings (2-3 mm in width) of Sprague-Dawley rats, Harley Guinea Pigs and porchine were used to carry out the tension assay. The tissue rings were bathed in 3.5 ml or 30 ml tissue chamber and aired with 95% O2/5% CO2 at 37° C. The tension was measured using a tension transducer linked to a PowerLab system (ADInstruments, USA). The basal tension was set to 0.7-1.0 g step by step with a 0.1-0.2 g increment. After the base tension reached steady-state in control K-H solution, the rings were contracted for 5-10 minutes by a 70 mM high K^+ K-H solution and relaxed by switching back to normal K-H solution. The alternation between 70 mM K^+ K-H and normal K-H was repeated two more times to equilibrate the tissue before the experiment.

[2] = solubility; format: physicochemical
[3] = onset of therapeutic effect after administration; format: in vivo
[4] = blood pressure and heart rate in anesthetized rats after oral gavage; format: in vivo; conditions: anesthetized female rat; for Mean Blood Pressure: saline control 186; for Heart Rate: saline control 364
Procedure: This example illustrates the effect that MS23 has on blood pressure reduction through an in vivo experiment. Specifically, this example illustrates the effect of an intravenous bolus injection of MS23 on blood pressure. Female Sprague-Dawley rats weighing 200-225 g were anesthetized with pentobarbital (30 mg/kg body weight (bw), i.p.). The animals were positioned supinely on a heat plate that was controlled by an automatic temperature controller system (TC-324B, Warner Instrument Corp.) to maintain its body temperature constant (36° ±0.5° C.) during the experiment. The trachea, right carotid artery, and left femoral vein were exposed. The trachea was cannulated and the animal was breathed with air through a respirator at a rate of 65-70/min and an inspiration pressure of approximately 10 cm H2O. PE catheters were implanted into the carotid artery and femoral vein, respectively. The animal was heparinized by i.v. injection of approximately 300 units of heparin dissolved in 0.3 ml of 0.9% saline. Arterial pressure was recorded from the carotid artery catheter connected to a physiological pressure transducer (SP 844, Capto Company, Norway) that was coupled to a bridge amplifier (PowerLab, ADInstruments). The data was digitized through a 16 SP interface and acquire on-line with Chart 4.0 software (PowerLab, ADInstruments) and stored to a personal computer.
MS23 was administered to two female rats via oral gavage at a dose of 26 and 80 mg/kg.bw, respectively. The agent was dissolved in 0.9% saline in a volume of 0.5 ml. The same volume of saline alone was administered to two control animals. After 15 minutes, the animal was anesthetized with pentobarbital (30 mg/kg.bw, i.p.) and same surgery was performed except that the femoral vein was not exposed and there was no i.v. administration of the test agent. The carotid blood pressure and heart rate were monitored and recorded for 60 minutes using the same method described above. The initial recording was made within 45 to 65 minutes after performing oral gavage. The results are reported in the following Table 1 (the MBP and HR were measured within 30 minutes after the surgery).

[5] = blood pressure in anesthetized dogs after intravenous bolus injection; format: in vivo; conditions: for Left Ventricular End Diastolic Pressure: control 8.7; for Blood Pressure Min: control 46.6; for Blood Pressure Mean: control 67.2; for Left Ventricular Systolic Pressure: control 78.5; for Blood Pressure Max: control 99.8; for Heart Rate: control 119.8, in bpm (unit assumed)
Procedure: This example illustrates the effect that MS23 has on blood pressure reduction through an in vivo experiment in dogs. An intravenous bolus injection of MS23 was administered to anesthetized dogs at a dose of 0.25 mg/kg.bw. […] Higher doses of MS23 produced a greater decrease in blood pressure without affecting heart rate and left ventricular end diastolic pressure.

[6] = tested on: guinea pig ventricular myocytes; assay: action potentials, nystatin-perforated whole-cell patch-clamp, ventricular myocytes; format: cell-based
Procedure: (§1) The effects of a novel synthesized cAMP specific phosphodiesterase inhibitor MS23 on action potential parameters were examined and compared with those of milrinone and rolipram in isolated guinea-pig myocytes. Action potentials (AP) were recorded under nystatin-perforated whole-cell patch-clamp mode at a temperature of 35±0.5° C. […] In comparison, rolipram (30 μM) shortened APD90 from 318.3±8.9 to 274.6±9.8 msec (P<0.05, n=3) in ventricular cells. […] In contrast, milrinone (10 μM) elongated ventricular APD90 from 287.9±10.3 msec to 327.8±17.4 msec (P<0.05, n=4) and produced a significant delay of phase 1 and plateau phase, but acceleration of phase 3 repolarization (APD90 shortened from 153.9±12.1 to 135.5±12.3 msec, P<0.05, n=4) in atrial cells.
(§2) Single myocytes were isolated by enzymatic digestion of guinea pig hearts. The animal was anesthetized by I.P. injection of pentobarbital sodium (50 mg/kg) and the heart was excised and retrogradely perfused with oxygenated Tyrode solution containing (in […]): 140 NaCl, 5.4 KCl, 1.5 MgCl2, 1.8 CaCl2, 0.33 NaH2PO4, 5.5 Glucose, 19 Hepes (pH 7.4 with NaOH at 36.5° C.). The enzymatic digestion was carried out with Ca^2+-free Tyrode solution by adding 0.4 mg/ml of collagenase type II (306 units/mg) and 1.6 mg/ml Bovine Serum Albumin V.
(§3) Transmembrane potentials were recorded under nystatin-perforted whole-cell current-clamp mode at 36.5° C. when the cells were bathed in Tyrode solution. The finished pipette had resistance of 4-7 MΩ when filled with a perforate solution containing (in mM): 140 KCl, 2 MCl2, 0.5 CaCl2, 10 Glucose, 10 Hepes (pH 7.2 with KOH), and 8.64 nM nystatin. The correction of junction potential was carried out off-line. The data acquisition was performed with an Axonpatch-200B amplifier/Digidata 1322A/Clampex 8.2 system (Axon Instrument, Inc., USA). Action potential was evoked by consecutive 10 msec rectangular current pulses at an interval of 2 seconds. APD was measured at 90% of repolarization (APD^90). The cell was held at a −40 mV membrane potential to inactivate the sodium channels. L-type calcium current was elicited by a step pulse from −40 mV to 0 mV with a duration of 300 msec.

[7] = tested on: guinea pig atrial myocytes; assay: action potentials, nystatin-perforated whole-cell patch-clamp, atrial myocytes; format: cell-based
Procedure: as §1, §2, §3

[8] = molecular target: PDE5 (Homo sapiens, UniProt O76074); conditions: ratio of cited IC50 values
Procedure: PDE inhibition is then determined by the presence or absence of substrate degradation products. […] The relative ability of an inhibitory compound to slow or prevent the degradation of tritiated cyclic nucleotides is one test that is indicative of how well the compound in question selects one or more of each isoform to inhibit.

[9] = tested on: T1, PDE-4; conditions: reported in Hatzelmann et al. 2001; read-out: IC50 for roflumilast activity on PDE-4; cited from earlier work
T1 construct: other: reported in Hatzelmann et al. 2001

[10] = tested on: PDE1; conditions: reported in Hatzelmann et al. 2001; read-out: IC50 for roflumilast activity on PDE1; cited from earlier work

For `CCN(CC)CC(=O)Nc1c(C)cccc1C` [Lidocaine], the “effect on tension of high K+ contracted porcine kidney main artery” value [1] was “did not relax”.
For `CCCN(CC)C(C)C(=O)Nc1[nH]c(CCSC)c(C)c1C(N)=O` (stereo not shown) [MS23], the “solubility in physiological saline” value [2] was “soluble”, the “onset of therapeutic effect (response occurs)” value ([3]; after intraperitoneal administration) was < 3 min and the “onset of therapeutic effect (response occurs)” value ([3]; after oral gavage) was ≤ 30 min. For the same compound, the “Mean Blood Pressure” value ([4]; oral gavage 26 mg/kg·bw) was 156 mm Hg, the “Heart Rate” value ([4]; oral gavage 26 mg/kg·bw) was 384 beat/min and the “Mean Blood Pressure” value ([4]; oral gavage 80 mg/kg·bw) was 126 mm Hg. The “Heart Rate” value ([4]; oral gavage 80 mg/kg·bw) was 300 beat/min, the “Left Ventricular End Diastolic Pressure” value ([5]; Bolus 1 mg/kg·bw) was 9.0 and the “Blood Pressure Min” value ([5]; Bolus 1 mg/kg·bw) was 39.8. The “Blood Pressure Mean” value ([5]; Bolus 1 mg/kg·bw) was 58.4, the “Left Ventricular Systolic Pressure” value ([5]; Bolus 1 mg/kg·bw) was 71.8 and the Blood Pressure Max ([5]; Bolus 1 mg/kg·bw) was 90.5 mmHg. The “Heart Rate” value ([5]; Bolus 1 mg/kg·bw) was 118.2, the “Left Ventricular End Diastolic Pressure” value ([5]; Bolus 2 mg/kg·bw) was 9.2 and the “Blood Pressure Min” value ([5]; Bolus 2 mg/kg·bw) was 33.7. For the same compound, the “Blood Pressure Mean” value ([5]; Bolus 2 mg/kg·bw) was 48.0, the “Left Ventricular Systolic Pressure” value ([5]; Bolus 2 mg/kg·bw) was 63.1 and the Blood Pressure Max ([5]; Bolus 2 mg/kg·bw) was 76.8 mmHg. The “Heart Rate” value ([5]; Bolus 2 mg/kg·bw) was 109.7, the “reduction in blood pressure” value ([5]; intravenous bolus 0.25 mg/kg.bw) was 4 mmHg and the “prolongation of ventricular APD” value ([6]; from 1 to 100 μM) was “did not prolong”. The “APD90 (action potential duration at 90% of repolarization)” value ([6]; ventricular cells, 30 μM, before drug 304.9±24.0 msec, P<0.05, n=8) was 254.9 ± 28.4 ms, the “effect on APD” value ([7]; atrial cells, 30 μM) was “no effect” and the “prolongation of atrial APD” value ([7]; from 1 to 100 μM) was “did not prolong”.
With `NC[C@H](O)c1ccc(O)c(O)c1` [Norepinephrine] the “effect on tension of high K+ contracted porcine kidney main artery” value [1] was “contracted”.
With `Cc1[nH]c(=O)c(C#N)cc1-c1ccncc1` [milrinone] the “effect on APD90” value ([6]; ventricular cells, 10 μM, after treatment with either rolipram or MS23) was “markedly shortened”, the APD90 ([6]; ventricular cells, 10 μM, before drug 287.9±10.3 msec, P<0.05, n=4) was 327.8 ± 17.4 ms and the APD90 ([7]; atrial cells, 10 μM, before drug 153.9±12.1 msec, P<0.05, n=4) was 135.5 ± 12.3 ms.
In the case of `O=C(Nc1c(Cl)cncc1Cl)c1ccc(OC(F)F)c(OCC2CC2)c1` [roflumilast], the “selectivity for PDE-4 as compared with PDE5 (PDE5 IC50/PDE-4 IC50)” value [8] is given as “at least 10,000”, the IC50 [9] is given as 0.8 nM and the IC50 [10] is given as > 10000 nM.
With `COc1ccc(C2CNC(=O)C2)cc1OC1CCCC1` (stereo not shown) [rolipram, reference compound] the APD90 ([6]; ventricular cells, 30 μM, before drug 318.3±8.9 msec, P<0.05, n=3) was 274.6 ± 9.8 ms and the “effect on action potential phases” value ([7]; atrial cells, 30 μM) was “small delay of phase 1 and plateau phase, but acceleration of phase 3 repolarization”.
